Data as given in ChEMBL document CHEMBL1201862, “PubChem BioAssay data set” (2004).
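48-hour exposure; five concentrations; linearly interpolated endpoints. Abbreviation: GI50, concentration required for 50% inhibition of growth.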 Active and inactive are the calls of the source. Cut-off read from the data, not from the text of the source: active = GI50 up to about 1.1 µM and inactive = higher.

Legend:
Assay in all cases: growth of human tumour cells (NCI), 48 h
[1] = tested on: A498
[2] = tested on: A549
[3] = tested on: CAKI-1
[4] = tested on: CCRF-CEM
[5] = tested on: EKVX
[6] = tested on: HCT-116
[7] = tested on: HT-29
[8] = tested on: MDA-MB-435
[9] = tested on: Malme-3M
[10] = tested on: NCI-H226
[11] = tested on: NCI-H23
[12] = tested on: NCI-H522
[13] = tested on: NCI/ADR-RES
[14] = tested on: OVCAR-3
[15] = tested on: RPMI-8226
[16] = tested on: RXF 393
[17] = tested on: SF-268
[18] = tested on: SN12C
[19] = tested on: SNB-19
[20] = tested on: SW-620

| SMILES | GI50 [1] | GI50 [2] | GI50 [3] | GI50 [4] | GI50 [5] | GI50 [6] | GI50 [7] | GI50 [8] | GI50 [9] | GI50 [10] | GI50 [11] | GI50 [12] | GI50 [13] | GI50 [14] | GI50 [15] | GI50 [16] | GI50 [17] | GI50 [18] | GI50 [19] | GI50 [20] |
| --- | --- | --- | --- | --- | --- | --- | --- | --- | --- | --- | --- | --- | --- | --- | --- | --- | --- | --- | --- | --- |
| O=[N+]([O-])c1cc([As](Br)c2ccc(O)c([N+](=O)[O-])c2)ccc1O | 1.95 µM (inactive) | 2.62 µM (inactive) | 1.7 µM (inactive) | 0.167 µM (active) | 1.87 µM (inactive) | 2 µM (inactive) | 3.43 µM (inactive) | 1.78 µM (inactive) | 0.632 µM (active) | 1.5 µM (inactive) | 2.17 µM (inactive) | 0.145 µM (active) | 2.77 µM (inactive) | 1.81 µM (inactive) | 0.208 µM (active) | 1.56 µM (inactive) | 2.14 µM (inactive) | 1.65 µM (inactive) | 1.94 µM (inactive) | 0.733 µM (active) |
| CCOC(=O)Cn1c(=O)c2cc(-c3ccccc3)cc3c(Cl)nc4c(OC)c(OC)cc1c4c32 | 17 µM (inactive) | 28 µM (inactive) | 27.2 µM (inactive) | 5.16 µM (inactive) | 12.4 µM (inactive) | 13.9 µM (inactive) | 13.8 µM (inactive) | 17.4 µM (inactive) | 0.578 µM (active) | > 39.6 µM (inactive) | 15.3 µM (inactive) | 14.8 µM (inactive) | 16.9 µM (inactive) | 20.9 µM (inactive) | 4.91 µM (inactive) | 14.8 µM (inactive) | 9.93 µM (inactive) | 16.2 µM (inactive) | 19 µM (inactive) | 17.7 µM (inactive) |
| CS(=O)(=O)OCCN(CCOS(C)(=O)=O)c1ccc(C=O)cc1 | 1.74 µM (inactive) | 2.89 µM (inactive) | 0.427 µM (active) | 0.897 µM (active) | 7.05 µM (inactive) | 31.4 µM (inactive) | 3.96 µM (inactive) | 10.3 µM (inactive) | 8.77 µM (inactive) | 1.84 µM (inactive) | 1.63 µM (inactive) | 0.195 µM (active) | 7.1 µM (inactive) | 5.12 µM (inactive) | 8.63 µM (inactive) | 0.432 µM (active) | 2.95 µM (inactive) | 3.68 µM (inactive) | 4.22 µM (inactive) | 14.9 µM (inactive) |
| C=C1c2[nH]c3ccccc3c2C2C(CC)C1CCN2C (stereo not given) | 18.9 µM (inactive) | > 100 µM (inactive) | > 100 µM (inactive) | 54.6 µM (inactive) | 28.4 µM (inactive) | 51.2 µM (inactive) | 27.8 µM (inactive) | 65.9 µM (inactive) | 24.3 µM (inactive) | 6.62 µM (inactive) | > 100 µM (inactive) | 63.2 µM (inactive) | 42.2 µM (inactive) | > 100 µM (inactive) | 32.5 µM (inactive) | > 100 µM (inactive) | > 100 µM (inactive) | 98.4 µM (inactive) | > 100 µM (inactive) | > 100 µM (inactive) |
| COc1cccc(N(CN2CC=CC2=O)C(C)=O)c1 | > 100 µM (inactive) | > 100 µM (inactive) | > 100 µM (inactive) | > 100 µM (inactive) | > 100 µM (inactive) | > 100 µM (inactive) | > 100 µM (inactive) | > 100 µM (inactive) | > 100 µM (inactive) | > 100 µM (inactive) | > 100 µM (inactive) | > 100 µM (inactive) | > 100 µM (inactive) | > 100 µM (inactive) | > 100 µM (inactive) | > 100 µM (inactive) | > 100 µM (inactive) | > 100 µM (inactive) | > 100 µM (inactive) | > 100 µM (inactive) |
